Consider 1 molecule from ChEMBL document CHEMBL1177643, “Synthesis, DNA-binding ability and anticancer activity of benzothiazole/benzoxazole-pyrrolo[2,1-c][1,4]benzodiazepine conjugates” (Bioorg Med Chem, 2010).

For the test, the system named is Calf thymus DNA. As to the kind of experiment: Binding affinity to calf thymus duplex-form DNA assessed as melting temperature at 1:5 compound/DNA ratio after 18 hrs. The format is nucleic-acid assay. Particulars: Bos taurus.

Take `COc1cc(-c2nc3ccccc3o2)ccc1OCCCCCOc1cc2c(cc1OC)C(=O)N1CCC[C@H]1C=N2`: the ΔTm (commonly the shift of the melting midpoint relative to a reference) is 4.2 °C.
